Where two headings read alike, the source gives them in different places. Square brackets hold non-standard residues; d marks the D form. Ends that are not written are not given here. Met(O) = CS(=O)CC[C@H](N)C(=O)O
Columns and labels:
Format in all cases: cell-based
[1] = system: Staphylococcus epidermidis; test: Antimicrobial assay for deletion analogues (Example 10), MIC; details: Table VII; 3.0×10^5 CFU/ml, 20 hours, LB medium
Experimental: (§1) For the deletion analogues of the parent peptide further described in Examples 11 and 12, antimicrobial assays were carried out in 96-well tissue culture plates. Each well was incubated with a given microorganism (Escherichia coli, Staphylococcus epidermidis, Pseudomonas aeruginosa, or Staphylococcus aureus) suspended in LB medium. Upon addition of the parent peptide or its deletion analogues (dissolved in 1×PBS<pH7.0), each well contained a final cell density of 1.3×10^5 colony forming units (CFU)/ml of E. coli, or 3.5×10^5 CFU/ml P.aeruginosa, or 3.9×10^5 CFU/ml S. Aureus or 3.0×10^5 CFU/ml S. epidermidis. The final peptide concentrations ranged from 1.5 μg/ml to greater than 100 μg/ml. Addition of peptide to the wells was defined as time zero. At twenty hours, the plates were placed in a Titertek Multiskan apparatus and the O.D. 620 determined. The plates as well as the initial innoculum were incubated at 37° C. Five wells per plate contained medium alone, whereas five others contained medium plus cells. These controls were used to eliminate the possibility of medium contamination, while providing a measure of uninhibited growth of the microorganisms. The degree of peptide activity was determined by comparing the deletion analogues with uninhibited growth of the control cells over a twenty-hour period. The effective growth inhibitation of the deletion analogues is listed in the examples and tables below.

Escherichia coli [2] = test: as above; details: Table VII; 1.3×10^5 CFU/ml, 20 hours, LB medium
Experimental: as §1

Pseudomonas aeruginosa [3] = test: as above; details: Table VII; 3.5×10^5 CFU/ml, 20 hours, LB medium
Experimental: as §1

Staphylococcus aureus = test: as above; details: Table VII; 3.9×10^5 CFU/ml, 20 hours, LB medium
Experimental: as §1

Escherichia coli [4] = details: for Min. Inhibitory Concentration E. Coli: 20 hours, LB medium
Experimental: (§2) For the following Examples 3-9, antimicrobial assays were carried out in 96-well tissue culture plates. Each well was incubated with a given microorganism (Escherichia coli, Staphylococcus epidermidis, or Pseudomonas aeruginosa) suspended in LB medium. Upon the addition of the parent peptide having the structural formula hereinabove described, or its substitution analogues, or of Peptide I (dissolved in 1 X PBS, pH 7.0) each well contained a final cell density of 1.0×10^6 colony forming units (CFU)/ml. The final peptide concentrations ranged from 1.5 μg/ml to greater than 100 μg/ml.
(§3) Addition of peptides to the wells was defined as time zero. At twenty hours, the plates were placed in a Titertek Multiskan apparatus and the O.D.620 determined. The plates as well as the initial innoculum were incubated at 37° C.
(§4) Five wells per plate contained media alone, while five others contained medium plus cells. These controls were used to eliminate the possibility of media contamination while providing a measure of uninhibited growth of the microorganisms.
(§5) The degree of peptide activity was determined by comparing the substitution analogues with uninhibited growth of the control cells over a twenty-hour period.
(§6) as hereinabove described and analogues thereof wherein a methionine sulfoxide residue was substituted for various amino acid residues of the parent peptide were prepared as hereinabove described in Example 1 and tested for minimum inhibitory concentration with respect to E. coli, P. aeruginosa, and S. epidermidis at a concentration given in μg/ml, and for percent hemolysis of human red blood cells as hereinabove described in Example 2. The minimum inhibitory concentration and percent hemolysis (at a concentration of 100 μg/ml) are listed below in Table I. As used herein, the heading "Amino Acid Residue Substituted" refers to the number of the amino acid residue in the peptide which is substituted with a desired amino acid residue. All other residues remain the same as that of the normal peptide sequence. The term "Minimum Inhibitory Concentration" (MIC) as used herein indicates the minimum concentration of peptide in μg/ml needed to achieve 100 percent effective growth inhibition of the organism.

Pseudomonas aeruginosa [5] = details: for Min. Inhibitory Concentration P. Aeruginosa: 20 hours, LB medium
Experimental: as §2, §3, §4, §5, §6

[6] = system: Staphylococcus epidermidis; test: Antimicrobial assay in 96-well plates, LB medium (Example 2), MIC; details: 20 hours; for Min. Inhibitory Concentration S. epidermidis: Table II, lysine substitutions; for Min. Inhibitory Concentration S. epidemidia: Table VI, methionine sulfoxide diastereomer fractions
[7] = Table VI, methionine sulfoxide diastereomer fractions

Substance	Minimum Inhibitory Concentration S. epidermidis [1] [µg/mL]	Minimum Inhibitory Concentration E. coli (Escherichia coli [2]) [µg/mL]	Minimum Inhibitory Concentration P. Aeruginosa (Pseudomonas aeruginosa [3]) [µg/mL]	Minimum Inhibitory Concentration S. aureus (Staphylococcus aureus) [µg/mL]	Min. Inhibitory Concentration E. Coli (Escherichia coli [4]; [7]) [µg/mL]	Min. Inhibitory Concentration P. Aeruginosa (Pseudomonas aeruginosa [5]; [7]) [µg/mL]	Min. Inhibitory Concentration S. epidemidia [6] [µg/mL]	further results
Ac-LKLLKKLLKKLKKLLKL-NH2 [16 (X(SEQ ID NO: 55) --NH2)]	4	8	16	32	–	–	–	–
Ac-LKLLKKLLKLKKLLKKL-NH2 [9 (X(SEQ ID NO: 51) --NH2)]	4	8	16	64	–	–	–	–
Ac-LKLLKKLLKKLKLLKKL-NH2 [12 (X(SEQ ID NO: 53) --NH2)]	4	8	8	32	–	–	–	–
Ac-LKKLKKLLKKLKKLLKKL-NH2 [3 (SEQ ID NO: 24)]	–	–	–	–	–	–	–	Min. Inhibitory Concentration E. Coli (Escherichia coli [4]; Table II, lysine substitutions): 5 µg/mL; Min. Inhibitory Concentration P. Aeruginosa (Pseudomonas aeruginosa [5]; Table II, lysine substitutions): 30 µg/mL; Min. Inhibitory Concentration S. epidermidis [6]: 10 µg/mL
Ac-LKLLKKLLKKLKKLLKK-NH2 [18 (X(SEQ ID NO: 56) --NH2)]	2	16	8	32	–	–	–	–
4 (SEQ ID NO: 8) 50/50: residue 4 methionine sulfoxide analogue, fraction by proportion of L-methionine-L-/D-sulfoxide (assignment undetermined) (LKL[Met(O)]KKLLKKLKKLLKKL; also: sulfoxide L-/D- 50/50 mixture, assignment undetermined)	–	–	–	–	10	5	5	–
Ac-KLLKKLLKKLKKLLKKL-NH2 [1 (X(SEQ ID NO: 46) --NH2)]	4	16	16 to 32	32	–	–	–	–
Ac-LKLKKKLLKKLKKLLKKL-NH2 [4 (SEQ ID NO: 25)]	–	–	–	–	–	–	–	Min. Inhibitory Concentration E. Coli (Escherichia coli [4]; Table II, lysine substitutions): 2.5 µg/mL; Min. Inhibitory Concentration P. Aeruginosa (Pseudomonas aeruginosa [5]; Table II, lysine substitutions): 30 µg/mL; Min. Inhibitory Concentration S. epidermidis [6]: 5 µg/mL
Ac-LKLLKKLKKLKKLLKKL-NH2 [7 (X(SEQ ID NO: 50) --NH2)]	2	4	4 to 8	64	–	–	–	–
11 (SEQ ID NO: 15) 20/80: residue 11 methionine sulfoxide analogue, fraction by proportion of L-methionine-L-/D-sulfoxide (assignment undetermined) (LKLLKKLLKK[Met(O)]KKLLKKL; also: sulfoxide L-/D- 20/80 mixture, assignment undetermined)	–	–	–	–	10	5	2.5	–
11 (SEQ ID NO: 15) 70/30: residue 11 methionine sulfoxide analogue, fraction by proportion of L-methionine-L-/D-sulfoxide (assignment undetermined) (LKLLKKLLKK[Met(O)]KKLLKKL; also: sulfoxide L-/D- 70/30 mixture, assignment undetermined)	–	–	–	–	10	2.5	2	–
Ac-LLLKKLLKKLKKLLKKL-NH2 [2 (X(SEQ ID NO: 47) --NH2)]	4	8 to 16	16 to 32	32 to 64	–	–	–	–
Ac-LKLKKLLKKLKKLLKKL-NH2 [3 (X(SEQ ID NO: 48) --NH2)]	4	4	8	32 to 64	–	–	–	–
Ac-LKLLKKLLKKLKKLKKL-NH2 [14 (X(SEQ ID NO: 54) --NH2)]	2	8	8	32	–	–	–	–
Ac-LLKLLKKLLKKLKK [Peptide I]	–	–	–	–	–	–	–	Minimum Inhibitory Concentration against E.coli (Escherichia coli [4]; 20 h): 10 µg/mL; Minimum Inhibitory Concentration against P.aeruginosa (Pseudomonas aeruginosa [5]; 20 h): 5 µg/mL
Ac-LKLLKKLLKKKKLLKKL-NH2 [11 (X(SEQ ID NO: 52) --NH2)]	2	64	8	256	–	–	–	–
7 (SEQ ID NO: 11) 70/30: residue 7 methionine sulfoxide analogue, fraction by proportion of L-methionine-L-/D-sulfoxide (assignment undetermined) (LKLLKK[Met(O)]LKKLKKLLKKL; also: sulfoxide L-/D- 70/30 mixture, assignment undetermined)	–	–	–	–	10	> 5	> 10	–
4 (SEQ ID NO: 8) 60/40: residue 4 methionine sulfoxide analogue, fraction by proportion of L-methionine-L-/D-sulfoxide (assignment undetermined) (LKL[Met(O)]KKLLKKLKKLLKKL; also: sulfoxide L-/D- 60/40 mixture, assignment undetermined)	–	–	–	–	> 10	5	5	–
7 (SEQ ID NO: 11) 20/80: residue 7 methionine sulfoxide analogue, fraction by proportion of L-methionine-L-/D-sulfoxide (assignment undetermined) (LKLLKK[Met(O)]LKKLKKLLKKL; also: sulfoxide L-/D- 20/80 mixture, assignment undetermined)	–	–	–	–	5	> 5	> 10	–
Ac-LKLLKLLKKLKKLLKKL-NH2 [5 (X(SEQ ID NO: 49) --NH2)]	2	8	32	64 to 128	–	–	–	–
